Columns and labels:
[1] = combined intranasal/buccal study (parenteral pharmahuasca): DMT and harmine concentrations in plasma; conditions: for bioavailability (area under the curve; AUC) compared to oral administration: DMT fumarate intranasal, harmine HCl buccal; for variation of peak plasma concentrations (cmax), extensive vs. poor metabolizers, factor: 150 mg buccal harmine HCl, up to 50 mg incremental intranasal DMT fumarate
[2] = aqueous solubility of DMT and harmine forms; conditions: for solubility: water, 25 °C
[3] = buccal / transmucosal absorption of DMT forms; conditions: in vivo
[4] = local tolerability on nasal or oral mucosa (burning sensation); conditions: for burning sensation on nasal application: intranasal
[5] = molecular target: T1, monoamine oxidase A (MAO-A) (Homo sapiens, UniProt P21397); conditions: cited from earlier work
T1 sequence (P21397 1-527): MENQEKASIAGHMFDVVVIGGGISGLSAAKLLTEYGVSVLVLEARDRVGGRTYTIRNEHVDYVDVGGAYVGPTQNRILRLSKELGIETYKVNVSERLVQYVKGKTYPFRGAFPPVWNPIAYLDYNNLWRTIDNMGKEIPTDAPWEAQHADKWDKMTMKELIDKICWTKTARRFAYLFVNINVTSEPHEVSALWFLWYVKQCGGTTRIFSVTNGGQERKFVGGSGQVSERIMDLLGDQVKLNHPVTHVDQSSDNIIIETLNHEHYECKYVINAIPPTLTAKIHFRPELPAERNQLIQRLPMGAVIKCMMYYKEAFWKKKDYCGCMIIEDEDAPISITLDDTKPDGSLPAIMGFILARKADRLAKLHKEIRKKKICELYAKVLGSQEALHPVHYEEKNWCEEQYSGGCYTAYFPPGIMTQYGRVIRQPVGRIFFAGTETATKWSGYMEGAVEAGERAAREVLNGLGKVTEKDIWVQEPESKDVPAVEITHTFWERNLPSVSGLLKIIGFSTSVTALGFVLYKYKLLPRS

[6] = molecular target: hepatic enzyme CYP2D6 (Homo sapiens, UniProt P10635); conditions: cited from earlier work
Sequence of hepatic enzyme CYP2D6 (P10635 whole entry): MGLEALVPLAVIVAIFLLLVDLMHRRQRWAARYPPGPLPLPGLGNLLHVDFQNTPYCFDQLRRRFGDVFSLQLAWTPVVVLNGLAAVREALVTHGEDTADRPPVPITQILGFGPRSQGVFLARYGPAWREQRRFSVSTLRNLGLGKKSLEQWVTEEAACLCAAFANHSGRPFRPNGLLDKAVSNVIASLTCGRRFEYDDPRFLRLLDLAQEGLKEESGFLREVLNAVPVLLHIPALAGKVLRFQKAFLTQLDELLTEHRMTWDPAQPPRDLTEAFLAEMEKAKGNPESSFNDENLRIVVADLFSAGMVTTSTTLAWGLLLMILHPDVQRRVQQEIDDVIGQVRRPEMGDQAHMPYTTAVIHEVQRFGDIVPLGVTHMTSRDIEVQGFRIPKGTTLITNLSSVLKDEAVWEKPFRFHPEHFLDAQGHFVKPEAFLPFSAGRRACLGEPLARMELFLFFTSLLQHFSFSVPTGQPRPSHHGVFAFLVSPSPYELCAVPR

[7] = molecular target: T2, monoamine oxidase B (MAO-B) (Homo sapiens, UniProt P27338); conditions: cited from earlier work
T2 sequence (P27338 1-520): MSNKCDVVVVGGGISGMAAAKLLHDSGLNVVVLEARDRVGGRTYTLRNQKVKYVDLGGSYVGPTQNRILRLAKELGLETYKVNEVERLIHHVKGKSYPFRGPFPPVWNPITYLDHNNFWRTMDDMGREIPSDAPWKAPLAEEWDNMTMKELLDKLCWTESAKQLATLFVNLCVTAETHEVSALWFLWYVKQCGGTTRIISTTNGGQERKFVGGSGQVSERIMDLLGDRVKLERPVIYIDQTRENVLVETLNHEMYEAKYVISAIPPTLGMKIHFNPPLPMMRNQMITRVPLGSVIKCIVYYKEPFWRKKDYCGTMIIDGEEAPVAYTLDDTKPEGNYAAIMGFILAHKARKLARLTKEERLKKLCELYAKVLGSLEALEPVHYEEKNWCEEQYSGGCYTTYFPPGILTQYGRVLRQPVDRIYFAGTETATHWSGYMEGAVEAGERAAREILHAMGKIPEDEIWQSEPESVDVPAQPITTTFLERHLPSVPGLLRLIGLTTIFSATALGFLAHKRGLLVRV

[8] = peroral pharmahuasca study: DMT and harmine concentrations in plasma; conditions: male, human, oral

CN(C)CCc1c[nH]c2ccccc12.O=C(O)/C=C/C(=O)O [DMT fumarate, N,N-dimethyltryptamine fumarate]
bioavailability (area under the curve; AUC) compared to oral administration [1]: substantially higher | solubility (in words) [2]: high | solubility [2]: > 35 mg/mL | transmucosal absorption [3]: efficient

CN(C)CCc1c[nH]c2ccccc12 [DMT, N,N-Dimethyltryptamine]
variation of peak plasma concentrations (cmax), extensive vs. poor metabolizers, factor [1]: ~2.3 | burning sensation when administered buccally ([4]; buccal, basic corrosion of the oral mucosa): burning sensation

COc1ccc2c(c1)[nH]c1c(C)nccc12.Cl [harmine HCl, Harmine hydrochloride]
bioavailability (area under the curve; AUC) compared to oral administration [1]: substantially higher | burning sensation on nasal application [4]: intense burning sensation | solubility [2]: ≤ 35 mg/mL

CC(=O)O.COc1ccc2c(c1)[nH]c1c(C)nccc12 [harmine acetate]
burning sensation on nasal application [4]: intense burning sensation | solubility [2]: ≤ 35 mg/mL

COc1ccc2c(c1)[nH]c1c(C)nccc12.O=C(O)CC(O)(CC(=O)O)C(=O)O [harmine citrate]
burning sensation on nasal application [4]: intense burning sensation | solubility [2]: ≤ 35 mg/mL

COc1ccc2c(c1)[nH]c1c(C)nccc12.O=C(O)/C=C/C(=O)O [harmine fumarate]
burning sensation on nasal application [4]: intense burning sensation | solubility [2]: ≤ 35 mg/mL

COc1ccc2c(c1)[nH]c1c(C)nccc12.O=S(=O)(O)O [harmine sulfate]
burning sensation on nasal application [4]: intense burning sensation | solubility [2]: ≤ 35 mg/mL

COc1ccc2c(c1)[nH]c1c(C)nccc12 [harmine, 7-Methoxy-1-methyl-9H-pyrido[3,4-b]indol]
variation of peak plasma concentrations (cmax), extensive vs. poor metabolizers, factor [1]: ~3.2 | inhibition of MAO-A [5]: reversibly inhibits | solubility (in words) [2]: very low | degradation by CYP2D6 [6]: mainly degraded | inhibition of MAO-B [7]: does not inhibit | Tmax [8]: 1 to 4.5 h

— patent publication US20230233537A1, “Compositions and Kits of Parts Comprising N,N-Dimethyltryptamine and Harmine and Their Use in Therapy” (University of Zürich, priority 2020, published 2023)
